# Literature values in US6521028B1, “Low hazard corrosion inhibitors and cleaning solutions using quaternary ammonium salts” (HydroChem Industrial Services, Inc., priority 1996, dated 2003).
# How the values were obtained:
# [1] = not given; remark: listed apart in the source
SMILES,amount fatal to humans [mL],LD50 (oral rats) [1] [mg/kg]
"CC(C)O [Isopropanol, isopropanol]",≥ 100,
COC(C)COC(C)CO (stereo not drawn) [dipropylene glycol methyl ether],,5130
NC(N)=S [thiourea],,125
